Format in all cases: cell-based
One test addresses T1, αWT β-αK24′A GlyR (Homo sapiens, UniProt P23415+P48167, A275I/A296P/F268Y/G272Q/K304A/L286I/M270L/M271I/P292M/P300G/S295A/T277S/V266M/V273M/V282I).
T1 construct: The α R218-Q219 and β R242-Q243 are also the joining sites for chimeras constructed between the ECD and TMD; expressed in transfected cells; host or cells: HEK293 (ATCC)
T1 sequence (P23415 29-449 isoform P23415-2): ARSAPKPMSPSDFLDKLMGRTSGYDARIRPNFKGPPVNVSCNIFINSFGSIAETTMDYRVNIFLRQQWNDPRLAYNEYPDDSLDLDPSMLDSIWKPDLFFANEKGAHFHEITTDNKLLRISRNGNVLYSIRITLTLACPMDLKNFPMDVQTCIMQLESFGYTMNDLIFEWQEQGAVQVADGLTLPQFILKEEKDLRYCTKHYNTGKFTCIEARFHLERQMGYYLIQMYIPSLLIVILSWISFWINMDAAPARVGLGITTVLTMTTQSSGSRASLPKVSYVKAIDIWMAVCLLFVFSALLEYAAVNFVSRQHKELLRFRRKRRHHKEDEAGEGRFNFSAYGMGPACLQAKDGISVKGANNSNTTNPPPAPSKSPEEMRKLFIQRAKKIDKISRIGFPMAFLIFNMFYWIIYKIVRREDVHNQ
T1 sequence (P48167+P23415 with tags, fused parts or gaps P48167:V266M/P48167:F268Y/P48167:M270L/P48167:M271I/P48167:G272Q/P48167:V273M/P48167:A275I/P48167:T277S/P48167:V282I/P48167:L286I/P48167:P292M/P48167:S295A/P48167:A296P/P48167:P300G/P23415:K304A): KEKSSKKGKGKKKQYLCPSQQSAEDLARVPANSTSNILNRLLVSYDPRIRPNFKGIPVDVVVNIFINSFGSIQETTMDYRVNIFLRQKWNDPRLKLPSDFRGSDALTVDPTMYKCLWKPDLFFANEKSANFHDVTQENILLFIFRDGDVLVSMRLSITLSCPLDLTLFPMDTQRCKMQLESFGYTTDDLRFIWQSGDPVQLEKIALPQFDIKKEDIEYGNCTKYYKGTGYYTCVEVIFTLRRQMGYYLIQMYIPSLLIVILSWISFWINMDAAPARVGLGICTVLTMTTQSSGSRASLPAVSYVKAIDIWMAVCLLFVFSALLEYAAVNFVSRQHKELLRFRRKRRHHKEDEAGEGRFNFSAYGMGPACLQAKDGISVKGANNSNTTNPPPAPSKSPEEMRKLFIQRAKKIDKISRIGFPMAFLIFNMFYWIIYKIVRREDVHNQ
The protocol:
(§1) The human GlyR α1 and β subunit cDNAs were subcloned into the pcDNA3.1zeo+ (Invitrogen) or pGEMHE [44] plasmid vectors for expression in HEK293 cells or Xenopus oocytes, respectively. Site-directed mutagenesis and chimera construction were performed using the QuickChange (Stratagene, La Jolla, CA, USA) mutagenesis and multiple-template-based sequential PCR protocols, respectively.
For the β-α chimeras used for determining the effect of hyperekplexia-mimicking mutations on α1 β GlyR channel function, the Thr at the M2 6′ position was replaced by a Cys. […] Through such a modification, picrotoxin resistance was used to distinguish the heteromeric α1 β-α GlyR from the homomeric α1 GlyR when the α1 and β-α subunits were co-expressed.
(§2) The effects of the hyperekplexia-mimicking mutations, K24′A, V25′A and Y27′A, were examined on GlyRs expressed in HEK293 cells (ATCC). Details of the HEK293 cell culture, GlyR expression and electrophysiological recording of the HEK293 cells are described elsewhere. Briefly, HEK293 cells were maintained in DMEM supplemented with 10% fetal bovine serum. Cells were transfected using a calcium phosphate precipitation protocol. When co-transfecting the α1 together with the β or any other chimera subunits, their respective cDNAs were combined in a ratio of 1∶10. In addition, the pEGFP-N1 (Clontech) was co-transfected to facilitate identifying the transfected cells. […] Cells were treated with external Ringer's solution and internal CsCl solution [30]. Cells were voltage-clamped at −40 mV. When the heteromeric GlyRs were expressed, the picrotoxin sensitivity was tested to confirm that the majority of receptors are heteromers, [30].
(§3) Results are expressed as mean±standard error of the mean of three or more independent experiments. […] Statistical significance was determined using the Student's t-test.

The next test has as its target T2, αWT βWT GlyR (Homo sapiens, UniProt P23415+P48167).
T2 construct: expressed in transfected cells; host or cells: HEK293 (ATCC)
How it is done: as §1, §2, §3

For a further test, the target named is T3, αR19′A βA19′R GlyR (Homo sapiens, UniProt P23415+P48167, A317R/R299A).
T3 construct: expressed in transfected cells; host or cells: HEK293 (ATCC)
T3 sequence (P23415 29-449 isoform P23415-2 R299A limits assumed): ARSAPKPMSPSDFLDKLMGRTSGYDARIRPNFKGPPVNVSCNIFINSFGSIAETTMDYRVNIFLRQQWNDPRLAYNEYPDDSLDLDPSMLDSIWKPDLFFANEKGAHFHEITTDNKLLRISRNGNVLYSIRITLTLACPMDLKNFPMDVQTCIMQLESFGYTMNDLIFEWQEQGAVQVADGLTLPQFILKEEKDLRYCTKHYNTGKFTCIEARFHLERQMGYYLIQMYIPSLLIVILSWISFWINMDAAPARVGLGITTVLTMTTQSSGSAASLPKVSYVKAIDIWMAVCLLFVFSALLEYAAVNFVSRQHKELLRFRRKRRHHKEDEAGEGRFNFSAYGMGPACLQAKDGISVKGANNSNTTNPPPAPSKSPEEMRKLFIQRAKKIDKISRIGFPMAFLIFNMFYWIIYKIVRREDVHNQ
T3 sequence (P48167 23-497 A317R): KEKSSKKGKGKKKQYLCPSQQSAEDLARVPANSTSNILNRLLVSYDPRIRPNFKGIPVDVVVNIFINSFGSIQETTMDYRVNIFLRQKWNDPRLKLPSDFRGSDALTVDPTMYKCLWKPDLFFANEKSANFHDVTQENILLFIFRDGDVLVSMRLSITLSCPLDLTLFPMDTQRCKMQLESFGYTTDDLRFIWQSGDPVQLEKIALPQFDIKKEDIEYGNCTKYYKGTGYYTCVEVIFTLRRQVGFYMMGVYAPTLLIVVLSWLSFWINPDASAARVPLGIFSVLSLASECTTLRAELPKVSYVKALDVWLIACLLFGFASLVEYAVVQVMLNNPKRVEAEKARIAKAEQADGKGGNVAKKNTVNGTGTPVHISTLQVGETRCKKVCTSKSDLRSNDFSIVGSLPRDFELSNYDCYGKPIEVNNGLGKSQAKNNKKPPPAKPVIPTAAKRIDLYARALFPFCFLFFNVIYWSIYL
How it is done: as §1, §2, §3

A further test has as its target T4, αV25′A βWT GlyR (Homo sapiens, UniProt P23415+P48167, V305A).
T4 construct: expressed in transfected cells; host or cells: HEK293 (ATCC)
The protocol:
as §1, §2, §3

The target of another test is T5, αWT αT-βV25′A GlyR (Homo sapiens, UniProt P23415+P48167, I259R/K198I/L185M/L189N/Q95A/R196T/R263E/S182A/T188K/T194V/T261H/V256I/V258A/V323A).
T5 construct: expressed in transfected cells; host or cells: HEK293 (ATCC)
T5 sequence (P48167 23-497 Q95A/S182A/L185M/T188K/L189N/T194V/R196T/K198I/V256I/V258A/I259R/T261H/R263E/V323A, one chain of several): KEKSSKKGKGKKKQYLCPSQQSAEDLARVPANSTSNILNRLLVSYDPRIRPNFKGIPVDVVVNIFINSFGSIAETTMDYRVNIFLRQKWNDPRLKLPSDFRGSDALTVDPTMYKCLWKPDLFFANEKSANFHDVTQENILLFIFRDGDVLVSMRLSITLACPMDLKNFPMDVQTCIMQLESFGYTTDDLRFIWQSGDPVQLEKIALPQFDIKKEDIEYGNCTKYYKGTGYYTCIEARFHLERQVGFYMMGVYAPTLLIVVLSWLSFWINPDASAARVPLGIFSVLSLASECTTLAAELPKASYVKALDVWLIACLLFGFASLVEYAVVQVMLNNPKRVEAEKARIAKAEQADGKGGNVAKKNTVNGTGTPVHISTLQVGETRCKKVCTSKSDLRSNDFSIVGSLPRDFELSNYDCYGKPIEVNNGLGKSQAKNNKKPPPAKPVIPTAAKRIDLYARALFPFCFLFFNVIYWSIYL
How it is done:
as §1, §2, §3

In another test the target is T6, αWT α-βY27′A GlyR (Homo sapiens, UniProt P23415+P48167, A277S/G282P/I253M/I257A/I264V/I268L/L252M/M248V/M255V/M274P/P278A/Q254G/S259T/Y250F/Y325A).
T6 construct: The α R218-Q219 and β R242-Q243 are also the joining sites for chimeras constructed between the ECD and TMD; expressed in transfected cells; host or cells: HEK293 cells (ATCC), pcDNA3.1zeo+
T6 sequence (P23415+P48167 fused with the stated changes, one chain of several): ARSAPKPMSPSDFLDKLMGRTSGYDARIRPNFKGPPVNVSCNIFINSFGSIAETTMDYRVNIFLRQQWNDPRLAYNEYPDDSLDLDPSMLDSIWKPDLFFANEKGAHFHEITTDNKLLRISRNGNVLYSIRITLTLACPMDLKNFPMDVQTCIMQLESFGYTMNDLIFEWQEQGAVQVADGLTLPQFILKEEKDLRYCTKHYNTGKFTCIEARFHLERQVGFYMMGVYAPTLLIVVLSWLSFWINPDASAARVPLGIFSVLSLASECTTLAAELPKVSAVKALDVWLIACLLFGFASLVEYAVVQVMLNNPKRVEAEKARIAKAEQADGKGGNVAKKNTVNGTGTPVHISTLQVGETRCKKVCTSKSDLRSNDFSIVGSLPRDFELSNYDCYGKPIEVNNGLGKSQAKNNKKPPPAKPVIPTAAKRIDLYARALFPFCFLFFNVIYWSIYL
How it is done: as §1, §2, §3

The mark [1] stands for this setting: αWT β-αK24′A, HEK293, with glycine at EC50 of α1 homomer.
Where [2] appears, read: αWT βWT, HEK293, with glycine at EC50 of α1 homomer.
Setting [3] is: αR19′A βA19′R, HEK293, with glycine at EC50 of α1 homomer.
[4] abbreviates: αV25′A βWT, HEK293, with glycine at EC50 of α1 homomer.
Where [5] appears, read: αWT αT-βV25′A, HEK293, with glycine at EC50 of α1 homomer.
The mark [6] stands for this setting: αWT α-βY27′A, HEK293, with glycine at EC50 of α1 homomer.

T4 sequence (P23415 29-449 isoform P23415-2 V305A limits assumed): as the sequence (P23415 29-449 isoform P23415-2 R299A limits assumed) above, with A271R, V277A counted along it
T4 sequence (P48167 23-497): as the sequence (P48167 23-497 A317R) above, with R295A counted along it
T2 sequence (P48167 23-497, one chain of several): as the sequence (P48167 23-497 A317R) above, with R295A counted along it

Take `NCC(=O)O` [glycine]: the Imax on αWT β-αK24′A GlyR was found to be 5.9±1.7 nA; on αWT βWT GlyR, 4.3±1.2 nA; on αR19′A βA19′R GlyR, 5.5±0.9 nA; at αV25′A βWT GlyR, 7.4±2.8 nA; on αWT αT-βV25′A GlyR, 14±3.0 nA; at αWT α-βY27′A GlyR, 6.9±3.1 nA. For the same compound, the nH on αWT β-αK24′A GlyR was 1.5±0.3; on αWT βWT GlyR it was 2.0±0.4; on αR19′A βA19′R GlyR, 2.1±0.2; at αV25′A βWT GlyR it was 1.4±0.2; on αWT αT-βV25′A GlyR, 2.3±0.1; on αWT α-βY27′A GlyR, 1.3±0.3.
Take picrotoxin [PTX]: the “10uM PTX inhibition (%)” value was found to be 12.0±3.0% at αWT β-αK24′A GlyR (setting [1]); 8.5±1.8% on αWT βWT GlyR (setting [2]); 4.2±1.7% at αR19′A βA19′R GlyR (setting [3]); 4.7±0.7% at αV25′A βWT GlyR (setting [4]); 8.5±1.8% at αWT αT-βV25′A GlyR (setting [5]); 4.9±0.3% on αWT α-βY27′A GlyR (setting [6]). The “100uM PTX inhibition (%)” value amounted to 31±3% at αWT β-αK24′A GlyR (setting [1]); 33±9% at αWT βWT GlyR (setting [2]); 22±8% on αR19′A βA19′R GlyR (setting [3]); 38±3% at αV25′A βWT GlyR (setting [4]); 36±3% on αWT αT-βV25′A GlyR (setting [5]); 39±5% on αWT α-βY27′A GlyR (setting [6]).

The values above are taken from paper PMC3222680 (PLoS ONE, 2011).
